Counter-ions that a name gives are not always drawn.
Molecular target: T1, human α7 nAChR (Homo sapiens, UniProt P36544)
T1 construct: expressed in transfected cells; host or cells: GH4C1 (rat pituitary) cell line, stably transfected
Test: cell-based calcium flux assay (FLIPR) for PAM activity, nicotine-evoked response
Conditions: GH4C1 cell line stably transfected with human α7 nAChR; potentiation of nicotine calcium flux
Experimental: The PAM activity of the compounds of the invention at the α7 nAChR may be determined using the following cell-based calcium flux assay which uses a Fluorimetric Image Plate Reader (FLIPR) (see Schroeder et al.; J. Biomolecular Screening, 1(2), p 75-80, 1996). GH4C1 cell line stably transfected with human α7 nAChR was suspended in a 384 well plate and incubated at 30° C. for 48 h in a 5% carbon dioxide atmosphere. The growth media was removed and the cells washed three times with a solution of Hanks' balanced salt solution (HBSS), 20 mM HEPES and 2.5 mM probenecid leaving 20 μl washing solution in each well. A loading solution (20 μl) containing HBSS, probenecid, 1-4 μM Fluo4 AM (a calcium indicator dye) and pluronic acid was added and the plate incubated for 45 min at 37° C. under an atmosphere free from carbon dioxide. The cells were washed three times leaving 30 μl in each well. The plate containing the cells and calcium indicator dye were then transferred to the FLIPR. The assay was initiated by collecting baseline datapoints at 10 second intervals followed by addition of the test compound in buffer solution (0.33% DMSO) and diluted to a final concentration of 10 μM and serial dilution of the wells, 1:2 or 1:3, gave a low concentration of <1 nM. Following a further 5-10 mins 10 μl of 50 μM nicotine was added and data collected for 2-3 mins. Nicotine produced a rapid, transient and reproducible calcium flux which could be potentiated with the positive allosteric modulator test compounds.

T1 sequence (P36544 23-502): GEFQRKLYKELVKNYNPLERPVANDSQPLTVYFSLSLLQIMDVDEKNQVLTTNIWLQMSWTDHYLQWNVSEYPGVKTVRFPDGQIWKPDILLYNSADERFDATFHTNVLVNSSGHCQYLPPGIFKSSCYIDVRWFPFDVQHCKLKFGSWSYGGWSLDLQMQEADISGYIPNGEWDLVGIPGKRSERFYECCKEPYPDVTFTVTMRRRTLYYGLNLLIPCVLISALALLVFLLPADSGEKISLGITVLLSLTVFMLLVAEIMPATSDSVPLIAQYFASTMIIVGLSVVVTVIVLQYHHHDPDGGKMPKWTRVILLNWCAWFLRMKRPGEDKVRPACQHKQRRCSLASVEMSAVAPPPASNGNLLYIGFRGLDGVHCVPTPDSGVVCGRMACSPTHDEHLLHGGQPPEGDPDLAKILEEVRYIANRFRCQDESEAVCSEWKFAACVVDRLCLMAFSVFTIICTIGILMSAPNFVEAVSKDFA

pEC50 Mean | pEC50 | SMILES
* (pEC50 mean of at least 5.0) |  | CCc1cc(NCc2cnc3[nH]c(C(F)(F)F)cc3c2)ncn1.Cl [5 HCl, 6-Ethyl-N-{[2-(trifluoromethyl)-1H-pyrrolo[2,3-b]pyridin-5-yl]methyl}-4-pyrimidinamine HCl]
*** (pEC50 mean of at least 6.0) | 6 | CC(F)(F)c1cc(NCc2cnc3[nH]c(C(F)(F)F)cc3c2)ncn1.Cl [8 HCl, 6-(1,1-Difluoroethyl)-N-{[2-(trifluoromethyl)-1H-pyrrolo[2,3-b]pyridin-5-yl]methyl}-4-pyrimidinamine hydrochloride]
** (pEC50 mean of at least 5.5) |  | Cl.FC(F)c1cc(NCc2cnc3[nH]c(C(F)(F)F)cc3c2)ncn1 [10 HCl, 6-(Difluoromethyl)-N-{[2-(trifluoromethyl)-1H-pyrrolo[2,3-b]pyridin-5-yl]methyl}-4-pyrimidinamine hydrochloride]
* (pEC50 mean of at least 5.0) |  | Cl.FC(F)(F)c1cc2cc(CNc3cc(C4CC4)ncn3)cnc2[nH]1 [14 HCl]

Same assay, conditions: GH4C1 cell line stably transfected with human α7 nAChR; potentiation of nicotine calcium flux; read-out: pEC50 (converted)

EC50 [µM] | SMILES
1 | CC(F)(F)c1cc(NCc2cnc3[nH]c(C(F)(F)F)cc3c2)ncn1 [Example 8, 6-(1,1-Difluoroethyl)-N-{[2-(trifluoromethyl)-1H-pyrrolo[2,3-b]pyridin-5-yl]methyl}-4-pyrimidinamine]
1.26 | [2H]C([2H])(Nc1cc(C(C)(F)F)ncn1)c1cnc2[nH]c(C(F)(F)F)cc2c1 [Example 8-d]
0.398 | CC(C)(F)c1cc(NCc2cnc3[nH]c(C(F)(F)F)cc3c2)ncn1 [Example 15, 6-(1-Fluoro-1-methylethyl)-N-{[2-(trifluoromethyl)-1H-pyrrolo[2,3-b]pyridin-5-yl]methyl}-4-pyrimidinamine]
0.631 | [2H]C([2H])(Nc1cc(C(C)(C)F)ncn1)c1cnc2[nH]c(C(F)(F)F)cc2c1 [Example 15-d, 6-(1-Fluoro-1-methylethyl)-N-{[2-(trifluoromethyl)-1H-pyrrolo[2,3-b]pyridin-5-yl]methyl}-4-pyrimidinamine-d2]

Same assay, conditions: GH4C1 cell line stably transfected with human α7 nAChR; potentiation of nicotine calcium flux; read-out: pEC50 Mean (converted)

EC50 [µM] | SMILES
≤ 3.16 | CC(F)c1cc(NCc2cnc3[nH]c(C(F)(F)F)cc3c2)ncn1 (stereo not drawn) [9 HCl]
≤ 10 | FCc1cc(NCc2cnc3[nH]c(C(F)(F)F)cc3c2)ncn1 [11 HCl, 6-(Fluoromethyl)-N-{[2-(trifluoromethyl)-1H-pyrrolo[2,3-b]pyridin-5-yl]methyl}-4-pyrimidinamine hydrochloride]
≤ 3.16 | Cl.[2H]C([2H])(Nc1cc(C2CC2)ncn1)c1cnc2[nH]c(C(F)(F)F)cc2c1 [14-d HCl]
≤ 1 | CCc1ncnc(NCc2cnc3[nH]c(C(F)(F)F)cc3c2)c1F [16 HCl, 6-Ethyl-5-fluoro-N-{[2-(trifluoromethyl}-1H-pyrrolo[2,3-b]pyridin-5-yl]methyl}-4-pyrimidinamine hydrochloride]
≤ 1 | Cc1c(NCc2cnc3[nH]c(C(F)(F)F)cc3c2)ncnc1C(C)F (stereo not drawn) [20 HCl]
≤ 1 | Cc1c(NCc2cnc3[nH]c(C(F)(F)F)cc3c2)ncnc1C(C)(F)F [21 HCl]
≤ 1 | Cc1c(NCc2cnc3[nH]c(C(F)(F)F)cc3c2)ncnc1C(F)(F)F [22 HCl, 5-Methyl-6-(trifluoromethyl)-N-{[2-(trifluoromethyl)-1H-pyrrolo[2,3-b]pyridin-5-yl]methyl}-4-pyrimidinamine hydrochloride]
≤ 10 | Cc1c(CF)ncnc1NCc1cnc2[nH]c(C(F)(F)F)cc2c1 [24 HCl]
≤ 3.16 | Cc1c(NCc2cnc3[nH]c(C(F)(F)F)cc3c2)ncnc1C1CC1 [25 HCl, 6-Cyclopropyl-5-methyl-N-{[2-(trifluoromethyl)-1H-pyrrolo[2,3-b)pyridin-5-yl]methyl}-4-pyrimidinamine hydrochloride]
≤ 1 | FC(F)(F)c1cc(NCc2cnc3[nH]c(C(F)(F)F)cc3c2)ncn1 [Example 1, 6-(Trifluoromethyl)-N-{[2-(trifluoromethyl)-1H-pyrrolo[2,3-b]pyridin-5-yl]methyl}-4-pyrimidinamine]
≤ 10 | CC(C)c1cc(NCc2cnc3[nH]c(C(F)(F)F)cc3c2)ncn1 [Example 2, 6-(1-Methylethyl)-N-{[2-(trifluoromethyl)-1H-pyrrolo[2,3-b]pyridin-5-yl]methyl}-4-pyrimidinamine]
≤ 3.16 | N#Cc1cc(NCc2cnc3[nH]c(C(F)(F)F)cc3c2)ncn1 [Example 3, 6-({[2-(Trifluoromethyl)-1H-pyrrolo[2,3-b]pyridin-5-yl]methyl}amino)-4-pyrimidinecarbonitrile]
≤ 3.16 | CC(C)(C)c1cc(NCc2cnc3[nH]c(C(F)(F)F)cc3c2)ncn1 [Example 4, 6-(1,1-Dimethylethyl)-N-{[2-(trifluoromethyl)-1H-pyrrolo[2,3-b]pyridin-5-yl]methyl}-4-pyrimidinamine]
≤ 10 | CCc1cc(NCc2cnc3[nH]c(C(F)(F)F)cc3c2)ncn1 [Example 5, 6-Ethyl-N-{[2-(trifluoromethyl)-1H-pyrrolo[2,3-b]pyridin-5-yl]methyl}-4-pyrimidinamine]
≤ 10 | N#CCc1cc(NCc2cnc3[nH]c(C(F)(F)F)cc3c2)ncn1 [Example 6, [6-({[2-(Trifluoromethyl)-1H-pyrrolo[2,3-b]pyridin-5-yl]methyl}amino)-4-pyrimidinyl]acetonitrile]
≤ 10 | CC(=O)c1cc(NCc2cnc3[nH]c(C(F)(F)F)cc3c2)ncn1 [Example 7, 1-[6-({[2-(Trifluoromethyl)-1H-pyrrolo[2,3-b]pyridin-5-yl]methyl}amino)-4-pyrimidinyl]ethanone]
≤ 1 | CC(F)(F)c1cc(NCc2cnc3[nH]c(C(F)(F)F)cc3c2)ncn1 [Example 8, 6-(1,1-Difluoroethyl)-N-{[2-(trifluoromethyl)-1H-pyrrolo[2,3-b]pyridin-5-yl]methyl}-4-pyrimidinamine]
≤ 3.16 | [2H]C([2H])(Nc1cc(C(C)(F)F)ncn1)c1cnc2[nH]c(C(F)(F)F)cc2c1 [Example 8-d]
≤ 10 | CC(F)c1cc(NCc2cnc3[nH]c(C(F)(F)F)cc3c2)ncn1 (stereo not drawn) [Example 9, 6-(1-Fluoroethyl)-N-{[2-(trifluoromethyl)-1H-pyrrolo[2,3-b]pyridin-5-yl]methyl}-4-pyrimidinamine]
≤ 3.16 | FC(F)c1cc(NCc2cnc3[nH]c(C(F)(F)F)cc3c2)ncn1 [Example 10, 6-(Difluoromethyl)-N-{[2-(trifluoromethyl)-1H-pyrrolo[2,3-b]pyridin-5-yl]methyl}-4-pyrimidinamine]
≤ 3.16 | FCc1cc(NCc2cnc3[nH]c(C(F)(F)F)cc3c2)ncn1 [Example 11, 6-(Fluoromethyl)-N-{[2-(trifluoromethyl)-1H-pyrrolo[2,3-b]pyridin-5-yl]methyl}-4-pyrimidinamine]
≤ 3.16 | FC(F)(F)c1cc(NCc2ccc3[nH]c(C(F)(F)F)cc3c2)ncn1 [Example 12, 6-(Trifluoromethyl)-N-{[2-(trifluoromethyl)-1H-indol-5-yl]methyl}-4-pyrimidinamine]
≤ 10 | FC(F)(F)c1cc2cc(CNc3cc(Cl)ncn3)ccc2[nH]1 [Example 13, 6-Chloro-N-{[2-(trifluoromethyl)-1H-indol-5-yl]methyl}-4-pyrimidinamine]
≤ 10 | FC(F)(F)c1cc2cc(CNc3cc(C4CC4)ncn3)cnc2[nH]1 [Example 14, 6-Cyclopropyl-N-{[2-(trifluoromethyl)-1H-pyrrolo[2,3-b]pyridin-5-yl]methyl}-4-pyrimidinamine]
≤ 1 | CC(C)(F)c1cc(NCc2cnc3[nH]c(C(F)(F)F)cc3c2)ncn1 [Example 15, 6-(1-Fluoro-1-methylethyl)-N-{[2-(trifluoromethyl)-1H-pyrrolo[2,3-b]pyridin-5-yl]methyl}-4-pyrimidinamine]
≤ 1 | [2H]C([2H])(Nc1cc(C(C)(C)F)ncn1)c1cnc2[nH]c(C(F)(F)F)cc2c1 [Example 15-d, 6-(1-Fluoro-1-methylethyl)-N-{[2-(trifluoromethyl)-1H-pyrrolo[2,3-b]pyridin-5-yl]methyl}-4-pyrimidinamine-d2]
≤ 3.16 | FC(F)(F)c1cc2cc(CNc3cc(Cl)ncn3)cnc2[nH]1 [Example 17, 6-Chloro-N-{[2-(trifluoromethyl)-1H-pyrrolo[2,3-b]pyridin-5-yl]methyl}-4-pyrimidinamine]
≤ 10 | CCc1cc(NCc2ccc3[nH]c(C(F)(F)F)cc3c2)ncn1 [Example 18, 6-Ethyl-N-{[2-(trifluoromethyl)-1H-indol-5-yl]methyl}-4-pyrimidinamine]
≤ 10 | CCc1ncnc(NCc2cnc3[nH]c(C(F)(F)F)cc3c2)c1C [Example 19, 6-Ethyl-5-methyl-N-{[2-(trifluoromethyl)-1H-pyrrolo[2,3-b]pyridin-5-yl]methyl}-4-pyrimidinamine]
≤ 3.16 | Cc1c(NCc2cnc3[nH]c(C(F)(F)F)cc3c2)ncnc1C(F)F [Example 23, 6-(difluoromethyl)-5-methyl-N-{[2-(trifluoromethyl)-1H-pyrrolo[2,3-b]pyridin-5-yl]methyl}-4-pyrimidinamine]
